For one test, the target named is HPTPβ (Homo sapiens, UniProt P23467). Briefly: HPTPβ inhibition, IC50 (Table A). The test is classed as biochemical.
Another test addresses T1, PTP1B (Homo sapiens, UniProt P18031).
T1 sequence (P18031 1-435): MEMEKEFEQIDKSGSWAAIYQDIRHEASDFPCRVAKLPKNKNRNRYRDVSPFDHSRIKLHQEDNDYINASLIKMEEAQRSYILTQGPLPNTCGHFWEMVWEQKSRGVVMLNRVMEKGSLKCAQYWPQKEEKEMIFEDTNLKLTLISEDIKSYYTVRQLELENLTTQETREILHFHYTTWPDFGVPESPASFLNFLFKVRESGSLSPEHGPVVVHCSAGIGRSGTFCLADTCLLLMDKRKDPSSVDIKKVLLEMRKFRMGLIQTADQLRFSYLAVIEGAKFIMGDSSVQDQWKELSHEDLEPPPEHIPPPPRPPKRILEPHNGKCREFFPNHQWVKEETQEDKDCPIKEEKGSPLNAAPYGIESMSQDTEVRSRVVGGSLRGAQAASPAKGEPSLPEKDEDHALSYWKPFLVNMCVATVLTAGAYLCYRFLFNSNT
Briefly: PTP1B inhibition, IC50 (Table A). The test is classed as biochemical.

This is an account of results in US7795444B2, “Human protein tyrosine phosphatase inhibitors and methods of use” (Warner Chilcott Company, priority 2006, dated 2010).

Sequence of HPTPβ (P23467 23-1997): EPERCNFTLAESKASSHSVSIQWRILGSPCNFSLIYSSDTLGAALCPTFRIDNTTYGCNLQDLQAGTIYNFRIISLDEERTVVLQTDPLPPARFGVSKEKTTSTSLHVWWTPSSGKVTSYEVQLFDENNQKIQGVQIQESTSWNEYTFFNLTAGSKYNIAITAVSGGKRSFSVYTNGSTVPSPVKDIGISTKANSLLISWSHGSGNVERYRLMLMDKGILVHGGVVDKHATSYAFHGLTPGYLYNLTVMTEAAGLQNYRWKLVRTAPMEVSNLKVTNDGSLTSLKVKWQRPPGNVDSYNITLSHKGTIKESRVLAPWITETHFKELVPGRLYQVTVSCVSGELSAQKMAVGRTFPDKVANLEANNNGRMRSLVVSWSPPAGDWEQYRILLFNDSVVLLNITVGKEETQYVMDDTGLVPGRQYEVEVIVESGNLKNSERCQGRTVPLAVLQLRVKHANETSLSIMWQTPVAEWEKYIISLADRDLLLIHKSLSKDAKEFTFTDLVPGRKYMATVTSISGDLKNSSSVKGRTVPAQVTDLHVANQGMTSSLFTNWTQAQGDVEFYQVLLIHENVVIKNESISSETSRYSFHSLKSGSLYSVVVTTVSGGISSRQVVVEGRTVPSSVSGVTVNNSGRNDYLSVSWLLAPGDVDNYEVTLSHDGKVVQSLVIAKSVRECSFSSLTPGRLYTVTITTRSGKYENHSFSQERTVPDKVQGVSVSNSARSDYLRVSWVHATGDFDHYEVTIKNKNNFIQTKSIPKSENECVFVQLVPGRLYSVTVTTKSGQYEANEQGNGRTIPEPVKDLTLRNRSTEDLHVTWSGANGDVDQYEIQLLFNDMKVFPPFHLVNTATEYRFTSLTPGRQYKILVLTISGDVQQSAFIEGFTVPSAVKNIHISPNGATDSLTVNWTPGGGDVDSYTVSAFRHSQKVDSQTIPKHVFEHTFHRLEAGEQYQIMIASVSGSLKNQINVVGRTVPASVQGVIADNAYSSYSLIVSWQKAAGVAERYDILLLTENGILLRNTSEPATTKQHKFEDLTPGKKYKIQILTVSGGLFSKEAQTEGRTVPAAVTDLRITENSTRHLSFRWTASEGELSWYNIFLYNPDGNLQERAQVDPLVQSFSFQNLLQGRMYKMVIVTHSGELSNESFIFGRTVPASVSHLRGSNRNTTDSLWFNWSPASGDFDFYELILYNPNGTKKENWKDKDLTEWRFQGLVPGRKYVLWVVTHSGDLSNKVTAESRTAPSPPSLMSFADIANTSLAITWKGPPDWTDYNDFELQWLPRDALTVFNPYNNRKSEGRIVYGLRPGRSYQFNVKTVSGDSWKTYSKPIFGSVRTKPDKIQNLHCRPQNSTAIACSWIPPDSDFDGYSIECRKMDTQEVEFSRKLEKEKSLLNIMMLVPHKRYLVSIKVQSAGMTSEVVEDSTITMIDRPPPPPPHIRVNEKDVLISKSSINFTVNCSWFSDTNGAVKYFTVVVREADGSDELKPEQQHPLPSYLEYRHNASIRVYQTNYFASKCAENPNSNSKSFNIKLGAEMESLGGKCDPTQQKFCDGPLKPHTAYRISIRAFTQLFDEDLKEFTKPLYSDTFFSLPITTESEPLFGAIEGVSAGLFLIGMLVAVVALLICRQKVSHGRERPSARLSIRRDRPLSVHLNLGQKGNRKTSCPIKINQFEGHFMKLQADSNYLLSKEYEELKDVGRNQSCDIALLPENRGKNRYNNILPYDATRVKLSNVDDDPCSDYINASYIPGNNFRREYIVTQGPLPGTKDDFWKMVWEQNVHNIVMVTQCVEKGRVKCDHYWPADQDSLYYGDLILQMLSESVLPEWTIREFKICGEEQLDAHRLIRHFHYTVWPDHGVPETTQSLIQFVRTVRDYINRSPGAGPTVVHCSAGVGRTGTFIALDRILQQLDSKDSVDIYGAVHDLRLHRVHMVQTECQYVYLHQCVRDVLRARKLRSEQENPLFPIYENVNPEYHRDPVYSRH

Consider `CCc1csc([C@H](Cc2ccc(NS(=O)(=O)O)cc2)NC(=O)Cc2cccc(F)c2F)n1` [(S)-4-(2-(2-(2,3-Difluorophenyl)acetamido)-2-(4-ethylthiazol-2-yl)ethyl)phenyl-sulfamic acid], for which the 50% inhibitory concentration (IC50) on HPTPβ was determined as 0.028 µM; at PTP1B, 5.36 µM.
The like results for `CCc1csc([C@H](Cc2ccc(NS(=O)(=O)O)cc2)NC(=O)Cc2cccc(OC)c2OC)n1` [(S)-4-(2-(2-(2,3-Dimethoxyphenyl)acetamido)-2-(4-ethylthiazol-2-yl)ethyl)-phenylsulfamic acid] were, in that order, 0.037 µM and 25.4 µM.
As for `CCc1csc([C@H](Cc2ccc(NS(=O)(=O)O)cc2)NC(=O)Cc2ccccc2Cl)n1` [(S)-4-(2-(2-(2-Chlorophenyl)acetamido)-2-(4-ethylthiazol-2-yl)ethyl)phenyl-sulfamic acid], the figures for the concentration for half-maximal inhibition (IC50) against HPTPβ and against PTP1B were 0.056 µM and 22.8 µM, respectively.
The like results for `CCc1csc([C@H](Cc2ccc(NS(=O)(=O)O)cc2)NC(=O)Cc2ccc(F)c(F)c2)n1` [(S)-4-(2-(2-(3,4-Difluorophenyl)acetamido)-2-(4-ethylthiazol-2-yl)ethyl)phenyl-sulfamic acid] were, in that order, 0.075 µM and 23.9 µM.
Consider `CCc1csc([C@H](Cc2ccc(NS(=O)(=O)O)cc2)NC(=O)Cc2ccc(OC)c(OC)c2)n1` [(S)-4-(2-(2-(3,4-Dimethoxyphenyl)acetamido)-2-(4-ethylthiazol-2-yl)ethyl)-phenylsulfamic acid], for which the IC50 was 0.028 µM at HPTPβ and 15.5 µM at PTP1B.
As to `CCc1csc([C@H](Cc2ccc(NS(=O)(=O)O)cc2)NC(=O)Cc2cccc(Cl)c2)n1` [(S)-4-(2-(2-(3-Chlorophenyl)acetamido)-2-(4-ethylthiazol-2-yl)ethyl)phenyl-sulfamic acid], the results for the IC50 against HPTPβ and against PTP1B were 0.033 µM and 13.6 µM, respectively.
`CCc1csc([C@H](Cc2ccc(NS(=O)(=O)O)cc2)NC(=O)CCc2cccc(Cl)c2)n1` [(S)-4-(2-(3-(3-Chlorophenyl)propanamido)-2-(4-ethylthiazol-2-yl)ethyl)phenyl-sulfamic acid]: the 50% inhibitory concentration (IC50) at HPTPβ was found to be 0.0002 µM; against PTP1B, 15.3 µM.
On to `CCc1csc([C@H](Cc2ccc(NS(=O)(=O)O)cc2)NC(=O)Cc2ccccc2F)n1` [(S)-4-(2-(4-Ethylthiazol-2-yl)-2-(2-(2-fluorophenyl)acetamido)ethyl)phenyl-sulfamic acid], for which the half-maximal inhibitory concentration (IC50) on HPTPβ came out at 0.012 µM; on PTP1B, 5.36 µM.
As for `CCc1csc([C@H](Cc2ccc(NS(=O)(=O)O)cc2)NC(=O)Cc2cccc(F)c2)n1` [(S)-4-(2-(4-Ethylthiazol-2-yl)-2-(2-(3-fluorophenyl)acetamido)ethyl)phenyl-sulfamic acid], the IC50 against HPTPβ came out at 0.0003 µM; at PTP1B, 2.85 µM.
For `CCc1csc([C@H](Cc2ccc(NS(=O)(=O)O)cc2)NC(=O)Cc2cccc(O)c2)n1` [(S)-4-(2-(4-Ethylthiazol-2-yl)-2-(2-(3-hydroxyphenyl)acetamido)ethyl)phenyl-sulfamic acid] the same measures were 0.04 µM and 6.57 µM.
The like results for `CCc1csc([C@H](Cc2ccc(NS(=O)(=O)O)cc2)NC(=O)Cc2cccc(OC)c2)n1` [(S)-4-(2-(4-Ethylthiazol-2-yl)-2-(2-(3-methoxyphenyl)acetamido)ethyl)phenyl-sulfamic acid] were, in that order, 0.008 µM and 4.05 µM.
In the case of `CCc1csc([C@H](Cc2ccc(NS(=O)(=O)O)cc2)NC(=O)CCc2ccccc2OC)n1` [(S)-4-(2-(4-Ethylthiazol-2-yl)-2-(3-(2-methoxyphenyl)propanamido)ethyl)phenyl-sulfamic acid], the half-inhibitory concentration (IC50) against HPTPβ came to 0.003 µM; against PTP1B it was 16.9 µM.
`CCc1csc([C@H](Cc2ccc(NS(=O)(=O)O)cc2)NC(=O)CCc2cccc(OC)c2)n1` [(S)-4-(2-(4-Ethylthiazol-2-yl)-2-(3-(3-methoxyphenyl)propanamido)ethyl)phenyl-sulfamic acid]: the figures for the concentration for half-maximal inhibition (IC50) at HPTPβ and on PTP1B were 0.01 µM and 20.6 µM, respectively.
In the case of `CCc1csc([C@H](Cc2ccc(NS(=O)(=O)O)cc2)NC(=O)CCc2ccc(OC)cc2)n1` [(S)-4-(2-(4-Ethylthiazol-2-yl)-2-(3-(4-methoxyphenyl)propanamido)ethyl)phenyl-sulfamic acid], the IC50 was 0.006 µM on HPTPβ and 16 µM against PTP1B.
As to `CCc1csc([C@H](Cc2ccc(NS(=O)(=O)O)cc2)NC(=O)CCc2ccccc2)n1` [(S)-4-(2-(4-Ethylthiazol-2-yl)-2-(3-phenylpropanamido)ethyl)phenylsulfamic acid], the IC50 amounted to 0.002 µM against HPTPβ and 10.4 µM on PTP1B.
In the case of `CCc1csc([C@H](Cc2ccc(NS(=O)(=O)O)cc2)NC(=O)c2ccc3c(c2)OCO3)n1` [(S)-4-[2-(Benzo[d][1,3]dioxole-5-carboxamido)-2-(4-ethylthiazol-2-yl)ethyl]phenylsulfamic acid], the IC50 at HPTPβ is 0.042 µM; against PTP1B it was 19 µM.
As to `CCc1csc([C@H](Cc2ccc(NS(=O)(=O)O)cc2)NC(=O)Cn2cc(C)c(=O)[nH]c2=O)n1` [(S)-4-{2-(4-Ethylthiazol-2-yl)-2-[2-(5-methyl-2,4-dioxo-3,4-dihydropyrimidin-1(2H)-yl)acetamido]ethyl}phenylsulfamic acid], the IC50 on HPTPβ amounted to 0.002 µM; against PTP1B, 0.254 µM.
With `CCc1csc([C@H](Cc2ccc(NS(=O)(=O)O)cc2)NC(=O)CN2CCN(CC)C(=O)C2=O)n1` [(S)-4-{2-[2-(4-Ethyl-2,3-dioxopiperazin-1-yl)acetamido]-2-(4-ethylthiazol-2-yl)ethyl}phenylsulfamic acid], the IC50 at HPTPβ came out at 0.002 µM; at PTP1B it was 0.53 µM.
For `CCc1csc([C@H](Cc2ccc(NS(=O)(=O)O)cc2)NC(=O)Cc2ccccc2)n1` [(S)-{4-[2-(4-Ethylthiazol-2-yl)-2-(phenylacetylamido)ethyl]-phenyl}sulfamic acid] the same measures were 0.05 µM and 22.9 µM.
The like results for “(S)-4-(2-(4-Ethylthiazol-2-yl)-2-(2-(2-methoxyphenyl)acetamido)ethyl)phenyl-sulfamic acid” were, in that order, 0.014 µM and 11.7 µM.

Usually IC50 stands for the concentration that gives 50% inhibition.
